Assay results reported in patent US20170275287A1, “NOVEL N2, N4, N7, 6-TETRASUBSTITUTED PTERIDINE-2,4,7-TRIAMINE AND 2, 4, 6, 7-TETRASUBSTITUTED PTERIDINE COMPOUNDS AND METHODS OF SYNTHESIS AND USE THEREOF” (Janus Biotherapeutics, Inc., priority 2014, published 2017).
In brackets after ≈: the same amount, converted by molar mass. Like-named read-outs stand apart in the source and are kept apart here.

Columns and labels:
[1] = Toxicokinetics of the 7-day tox study; assay type: in vivo, rats; conditions: for increase in AUC0-24 h for a 10-fold increase in dose / increase in Cmax for a 10-fold increase in dose: 10 to 100 mg/kg; for AUC / half-life / Cmax / Tmax / clearance / Vd / bioavailability: rat; for half-life: read-out: T½ (converted); for Vd: read-out: Vdss; for bioavailability: read-out: calculated oral absolute bioavailability
Experimental: A 7-day non-GLP tox study was performed in rats. […] The following parameters and end points were evaluated in this study: clinical signs, body weights, body weight changes, food consumption, clinical pathology parameters (hematology, coagulation, clinical chemistry, and urinalysis), toxicokinetic parameters, gross necropsy findings, organ weights, and histopathologic examinations.
Clinical signs and body weight changes in the TK animals were generally similar to the main toxicology phase animals. Select toxicokinetic parameters from Days 1 and 7 are included below in Table 11.

[2] = 7-day non-GLP tox study, once daily oral gavage; assay type: in vivo, rats; conditions: for no-observed-effect level (NOEL): rats, 7 days oral
Experimental: A 7-day non-GLP tox study was performed in rats. Dosing was once daily by oral gavage. There were four dose groups; 0, 10, 30 and 100 mg/kg. The following parameters and end points were evaluated in this study: clinical signs, body weights, body weight changes, food consumption, clinical pathology parameters (hematology, coagulation, clinical chemistry, and urinalysis), toxicokinetic parameters, gross necropsy findings, organ weights, and histopathologic examinations.

[3] = Aqueous solubility (CEREP); assay type: physicochemical
Experimental: Preliminary screening measures were conducted by CEREP. All values fall within acceptable limits (Table 5). Solubility assays where performed by CEREP, Seattle, Wash., according to Lipinski, C. A. et al., 1997, Adv. Drug Del. Rev., 46:3-26. Protein binding assays where performed by CEREP, Seattle, Wash., according to Banker, M. J. et al., 2003, J. Pharm. Sci., 92:967-974. Permeability assays where performed by CEREP, Seattle, Wash. according to Hildalgo, I. J., 1998, Gastroenterology, 96:736-749. Metabolic stability assays where performed by CEREP, Seattle, Wash., according to Obach, R. S. et al., 1997, J. Pharmacol. Exp. Ther., 283:46-58. P-glycoprotein inhibition assays where performed by CEREP, Seattle, Wash., according to Polli, J. W. et al., 2001, J. Pharm. Exp. Ther., 299:620-628. Cell viability assays where performed by CEREP, Seattle, Wash., according to Mosmann, T., 1983, J. Immunol. Met. 65:55-62. hERG automated patch clamp assays where performed by CEREP, Seattle, Wash., according to Mathes, C., 2006, Expert Opin. Ther. Targets, 10:230-241.

[4] = all three oral doses, whole blood
[5] = female, whole blood, iv, 5 mg/kg, Day 1, 5 mg/kg I.V., Female
[6] = female, whole blood, po, 10 mg/kg, Day 1, 10 mg/kg oral, Female
[7] = female, whole blood, po, 10 mg/kg, Day 7, 10 mg/kg oral, Female
[8] = female, whole blood, po, 30 mg/kg, Day 1, 30 mg/kg oral, Female
[9] = female, whole blood, po, 30 mg/kg, Day 7, 30 mg/kg oral, Female
[10] = female, whole blood, po, 100 mg/kg, Day 1, 100 mg/kg oral, Female
[11] = female, whole blood, po, 100 mg/kg, Day 7, 100 mg/kg oral, Female
[12] = male, whole blood, iv, 5 mg/kg, Day 1, 5 mg/kg I.V., Male
[13] = male, whole blood, po, 10 mg/kg, Day 1, 10 mg/kg oral, Male
[14] = male, whole blood, po, 10 mg/kg, Day 7, 10 mg/kg oral, Male
[15] = male, whole blood, po, 30 mg/kg, Day 1, 30 mg/kg oral, Male
[16] = male, whole blood, po, 30 mg/kg, Day 7, 30 mg/kg oral, Male
[17] = male, whole blood, po, 100 mg/kg, Day 1, 100 mg/kg oral, Male
[18] = male, whole blood, po, 100 mg/kg, Day 7, 100 mg/kg oral, Male
[19] = whole blood, iv, Day 1, 5 mg/kg I.V., Female
[20] = whole blood, iv, Day 1, 5 mg/kg I.V., Male

## CN1CCN(c2nc(NCCN3CCOCC3)c3nc(Cl)c(NCCN4CCOCC4)nc3n2)CC1 [JB6121, 6-chloro-2-(4-methylpiperazin-1-yl)-N^4,N^7-bis(2-morpholinoethyl)pteridine-4,7-diamine]
[1]; 7 day toxicokinetics versus 24 h PK whole blood exposures
  7-day accumulation: approximately 2 fold
[1]; Day 1, 10 mg/kg oral, Female
  F (0-x): 8.10%
[1]; Day 1, 10 mg/kg oral, Male
  F (0-x): 13.3%
[1]; Day 1, 30 mg/kg oral, Female
  F (0-x): 37.2%
[1]; Day 1, 30 mg/kg oral, Male
  F (0-x): 28.0%
[1]; Day 1, 100 mg/kg oral, Female
  F (0-x): 91.0%
[1]; Day 1, 100 mg/kg oral, Male
  F (0-x): 78.5%
[1]; Day 1, female
  increase in AUC0-24 h for a 10-fold increase in dose: 113 fold
  increase in Cmax for a 10-fold increase in dose: 43 fold
[1]; Day 1, male
  increase in AUC0-24 h for a 10-fold increase in dose: 59 fold
  increase in Cmax for a 10-fold increase in dose: 32 fold
[1]; Day 7, female
  increase in AUC0-24 h for a 10-fold increase in dose: 38 fold
  increase in Cmax for a 10-fold increase in dose: 20 fold
[1]; Day 7, male
  increase in AUC0-24 h for a 10-fold increase in dose: 48 fold
  increase in Cmax for a 10-fold increase in dose: 24 fold
[1]; [4]
  average D7/D1 AUC0-24 h ratio: 2.79
  average D7/D1 Cmax ratio: 1.71
[1]; [5]
  AUC: 2210 ng·h/mL
  half-life: 10.8 h
[1]; [6]
  AUC: 357 ng·h/mL
  Cmax: 92 ng/mL
  Tmax: 3 h
  half-life: 5.43 h
[1]; [7]
  AUC: 2120 ng·h/mL
  Cmax: 260 ng/mL
  Tmax: 3 h
  half-life: 18.2 h
[1]; [8]
  AUC: 4920 ng·h/mL
  Cmax: 643 ng/mL
  Tmax: 3 h
  half-life: 8.8 h
[1]; [9]
  AUC: 8890 ng·h/mL
  Cmax: 639 ng/mL
  Tmax: 6 h
  half-life: 14.3 h
[1]; [10]
  AUC: 40300 ng·h/mL
  Cmax: 3980 ng/mL
  Tmax: 3 h
  half-life: 9.39 h
[1]; [11]
  AUC: 80200 ng·h/mL
  Cmax: 5310 ng/mL
  Tmax: 3 h
  half-life: 14.1 h
[1]; [12]
  AUC: 2790 ng·h/mL
  half-life: 10.2 h
[1]; [13]
  AUC: 743 ng·h/mL
  Cmax: 122 ng/mL
  Tmax: 3 h
  half-life: 14.1 h
[1]; [14]
  AUC: 1910 ng·h/mL
  Cmax: 181 ng/mL
  Tmax: 3 h
  half-life: 19.9 h
[1]; [15]
  AUC: 4700 ng·h/mL
  Cmax: 582 ng/mL
  Tmax: 3 h
  half-life: 9.39 h
[1]; [16]
  AUC: 11100 ng·h/mL
  Cmax: 805 ng/mL
  Tmax: 6 h
  half-life: 18.4 h
[1]; [17]
  AUC: 43800 ng·h/mL
  Cmax: 3950 ng/mL
  Tmax: 3 h
  half-life: 11.9 h
[1]; [18]
  AUC: 91200 ng·h/mL
  Cmax: 6280 ng/mL
  Tmax: 3 h
  half-life: 40.4 h
[1]; pooled 7-day exposure data, 0 to 30 mg/kg
  slope of Cmax versus dose: 28.24 ng/mL/mg/kg
[1]; [19]
  clearance: 31.5 mL/min/kg
  Vd: 23.1 L/kg
[1]; [20]
  clearance: 24.7 mL/min/kg
  Vd: 18.1 L/kg
[1]; whole blood, po, Day 1, 10 mg/kg
  bioavailability: 13.3%
[1]; whole blood, po, Day 1, 30 mg/kg
  bioavailability: 28%
[1]; whole blood, po, Day 1, 100 mg/kg
  bioavailability: 78.5%
[2]; both sexes, rat, in vivo, po
  NOAEL at 7 days: 100 mg/kg/day
[2]; rat, in vivo, 30 mg/kg/day
  hematopoiesis (spleen): increased incidence of hematopoiesis
  increase of mean spleen weights: at least 10%
[2]; rat, in vivo, 100 mg/kg/day
  hematopoiesis in the liver: slight increase in hematopoiesis
[2]; females
  no-observed-effect level (NOEL): 100 mg/kg/day
[2]; males
  no-observed-effect level (NOEL): 10 mg/kg/day
[3]; PBS, pH 7.4, aqueous buffer, read-out: Aqueous Solubility, PBS, pH 7.4
  solubility: > 200 µM
[3]; simulated gastric fluid, read-out: Aqueous Solubility, simulated Gastric Fluid
  solubility: > 200 µM
[3]; simulated intestinal fluid, fassgf or other biorelevant, read-out: Aqueous Solubility, simulated Intestinal Fluid
  solubility: 195 µM (≈ 102 µg/mL)
